Common to all, as to test: Bliss excess, mean over the matrix (fraction); higher = more synergy
The subject of assay [1] is LU-99A (Non-Small Cell Lung Carcinoma). Summed up:
(§1)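 Cell lines grown in DMEM/F12 or RPMI with 10% FBS were plated in 1536-well plates and held 24 hours at 37°C, 5% CO2 before 72 hours of exposure to two-drug dose matrices, with DMSO typically at 0.2%. CellTiter-Glo 2.0 luminescence gave viability, which was converted to inhibition. Vehicle wells were set to 0 and blank wells to 1. Combination Emax is the second-highest inhibition in the matrix, and Bliss excess is the observed combination effect minus the expected EA + EB − EA·EB, where EA and EB are the single-agent effects.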

Another assay has as its system IGR-1 (Melanoma). Summed up: as §1
In another assay the test system is NCI-H2369 (Mesothelioma). Summed up:
as §1

Assay [2] relates to EM-2 (Chronic Myelogenous Leukemia). Summed up:
as §1

Assay [3] concerns DOV13 (Ovarian Carcinoma). In a few lines:
as §1

Assay [4] relates to NCI-H1781 (Lung Adenocarcinoma). In a few lines: as §1
The subject of the next assay is SK-N-FI (Neuroblastoma). In a few lines: as §1
A further assay concerns CAL-78 (Chondrosarcoma). Summed up:
as §1

For assay [5], the system named is MDA-MB-231 (Breast Carcinoma). In a few lines:
as §1

In assay [6] the test system is TE-5 (Esophageal Squamous Cell Carcinoma). Summed up: as §1
Assay [7] relates to HPAC (Pancreatic Carcinoma). Summed up:
as §1

The test system of assay [8] is NCI-H1793 (Lung Adenocarcinoma). Summed up:
as §1

The test system of assay [9] is SW1990 (Pancreatic Carcinoma). Summed up:
as §1

In assay [10] the test system is MFH-ino (Other Solid Carcinomas). Summed up:
as §1

Assay [11] has as its system CTV-1 (T-Lymphoblastic Leukemia). In a few lines:
as §1

Assay [12] deals with SNU-C5 (Colorectal Carcinoma). In a few lines: as §1
Assay [13] concerns NALM-6 (B-Lymphoblastic Leukemia). Summed up:
as §1

Assay [14] has as its system G-292-Clone-A141B1 (Osteosarcoma). In a few lines:
as §1

The test system of assay [15] is TGBC24TKB (Biliary Tract Carcinoma). In a few lines:
as §1

For assay [16], the system named is JiyoyeP-2003 (Burkitt's Lymphoma). Summed up: as §1

Consider `Cc1cc2ncnn2cc1Nc1ncc2c(n1)n(C1CCOCC1)c(=O)n2C` [AZD7648] + CCN(CCO)CCCOc1ccc2c(Nc3cc(CC(=O)Nc4cccc(F)c4)[nH]n3)ncnc2c1 [AZD2811] (first compound max 10 µM, 7x7, partner max 1 µM), for which the Bliss excess in assay [1] was 0.0216; in the assay on IGR-1 (Melanoma) it was -0.0224; in the assay with NCI-H2369 (Mesothelioma), 0.0252; in assay [2] it was -0.073; in [3], -0.0551; in [4] it was 0.0239. Also, the Bliss excess with SK-N-FI (Neuroblastoma) was 0.0094; in the assay on CAL-78 (Chondrosarcoma), -0.0053; in assay [5], 0.0014; in assay [6] it was -0.0237; in [7], -0.032; in assay [8], -0.005. Further, the Bliss excess in assay [9] was -0.0199; in [10] it was -0.0094; in assay [11] it was 0.0709; in [12], 0.0093; in assay [13], -0.0358; in [14], 0.0147. Besides, the Bliss excess in assay [15] is -0.0157; in assay [16], 0.0829.
`COc1cccc(OCCCN)c1-c1cc(Nc2cnc(C#N)cn2)n[nH]1` [Prexasertib] + O=C(c1cc(Cc2n[nH]c(=O)c3ccccc23)ccc1F)N1CCN(C(=O)C2CC2)CC1 [Olaparib] (first compound max 1 µM, 7x7, partner max 10 µM): the Bliss excess was -0.0849 in [1]; 0.0102 in the assay on IGR-1 (Melanoma); -0.0284 in the assay on NCI-H2369 (Mesothelioma); 0.0164 in assay [2]; 0.0032 in assay [3]; -0.0036 in assay [4]. The Bliss excess was -0.0683 in the assay with SK-N-FI (Neuroblastoma); -0.0535 with CAL-78 (Chondrosarcoma); -0.127 in [5]; 0.0048 in [6]; -0.149 in assay [7]; -0.0106 in assay [8]. The Bliss excess in assay [9] was -0.0617; in assay [10], -0.0326; in [11], -0.122; in assay [12], -0.109; in [13] it was -0.0087; in assay [14] it was -0.0443. In addition, the Bliss excess in assay [15] was -0.0191; in assay [16], -0.0421.
Take `CC1(C)CCC(CN2CCN(c3ccc(C(=O)NS(=O)(=O)c4ccc(NCC5CCOCC5)c([N+](=O)[O-])c4)c(Oc4cnc5[nH]ccc5c4)c3)CC2)=C(c2ccc(Cl)cc2)C1` [Venetoclax] + CCN(CCO)CCCOc1ccc2c(Nc3cc(CC(=O)Nc4cccc(F)c4)[nH]n3)ncnc2c1 [AZD2811] (first compound max 1 µM, 7x7, partner max 1 µM): the Bliss excess in [1] is -0.0012; with IGR-1 (Melanoma), 0.0261; with NCI-H2369 (Mesothelioma), -0.015; in assay [2] it was -0.0721; in assay [3], 0.0465; in assay [4], 0.0061. Further, the Bliss excess in the assay on SK-N-FI (Neuroblastoma) is -0.0456; with CAL-78 (Chondrosarcoma), 0.0143; in assay [5], -0.013; in assay [6], -0.0318; in assay [7] it was -0.0275; in [8], -0.0039. In addition, the Bliss excess in [9] is 0.0024; in assay [10], -0.0239; in assay [11] it was -0.0281; in assay [12] it was 0.0063; in assay [13] it was 0.0968; in assay [14] it was -0.0413. Besides, the Bliss excess in [15] amounted to 0.005; in assay [16] it was 0.0467.
Regarding `C=CCn1c(=O)c2cnc(Nc3ccc(N4CCN(C)CC4)cc3)nc2n1-c1cccc(C(C)(C)O)n1` [AZD1775] + C1CN(CCC1(C(=O)N[C@@H](CCO)C2=CC=C(C=C2)Cl)N)C3=NC=NC4=C3C=CN4 [Capivasertib] (first compound max 3 µM, partner max 3 µM), the Bliss excess in [1] is -0.0106; in the assay with IGR-1 (Melanoma), 0.011; in the assay with NCI-H2369 (Mesothelioma), 0.0035; in [2], -0.0724; in assay [3], 0.0339; in [4] it was -0.096. In addition, the Bliss excess in the assay with SK-N-FI (Neuroblastoma) is -0.0442; in the assay on CAL-78 (Chondrosarcoma), -0.0614; in assay [5], -0.0181; in [6], 0.0129; in assay [7] it was -0.0611; in [8], 0.0373. In addition, the Bliss excess in [9] is -0.0209; in assay [10], -0.0204; in [11], 0.0399; in [12] it was -0.034; in assay [13] it was -0.0371; in [14], -0.0313. The Bliss excess in assay [15] was -0.034; in [16], -0.0726.
Regarding `CC(=O)Nc1cccc(-n2c(=O)n(C3CC3)c(=O)c3c(Nc4ccc(I)cc4F)n(C)c(=O)c(C)c32)c1` [Trametinib] + Cc1nc(-c2cn3c(n2)-c2ccc(-c4cnn(C(C)(C)C(N)=O)c4)cc2OCC3)n(C(C)C)n1 [Taselisib] (first compound max 1 µM, 7x7, partner max 10 µM), the Bliss excess in assay [1] was 0.116; with IGR-1 (Melanoma), 0.15; in the assay on NCI-H2369 (Mesothelioma), 0.046; in assay [2], 0.319; in assay [3], 0.136; in assay [4], -0.053. The Bliss excess in the assay on SK-N-FI (Neuroblastoma) was 0.033; in the assay with CAL-78 (Chondrosarcoma), 0.0728; in [5], 0.142; in [6], 0.101; in assay [7] it was 0.0762; in [8], 0.0519. In addition, the Bliss excess in assay [9] is 0.148; in assay [10] it was 0.148; in assay [11], 0.328; in assay [12], 0.0951; in assay [13], -0.0228; in assay [14], 0.0804. Further, the Bliss excess was 0.196 in assay [15] and 0.108 in assay [16].
Consider `Cn1cnc2c(F)c(Nc3ccc(Br)cc3Cl)c(C(=O)NOCCO)cc21` [Selumetinib] + C=CCn1c(=O)c2cnc(Nc3ccc(N4CCN(C)CC4)cc3)nc2n1-c1cccc(C(C)(C)O)n1 [AZD1775] (first compound max 10 µM, partner max 1 µM), for which the Bliss excess was -0.0624 in assay [1]; 0.0466 in the assay with IGR-1 (Melanoma); -0.0624 with NCI-H2369 (Mesothelioma); -0.0618 in assay [2]; -0.0631 in [3]; -0.063 in assay [4]. The Bliss excess in the assay with SK-N-FI (Neuroblastoma) was -0.0433; with CAL-78 (Chondrosarcoma), -0.07; in assay [5], -0.0337; in assay [6], -0.0514; in assay [7] it was -0.0467; in [8] it was -0.0764. Moreover, the Bliss excess is 0.0134 in assay [9]; -0.0316 in assay [10]; 0.0039 in assay [11]; 0.0241 in [12]; 0.0755 in [13]; -0.0458 in assay [14]. Besides, the figures for the Bliss excess in assay [15] and in assay [16] were -0.0027 and -0.0563, respectively.
`Cn1cnc2c(F)c(Nc3ccc(Br)cc3Cl)c(C(=O)NOCCO)cc21` [Selumetinib] + CC(C)n1c(=O)n(C)c2cnc3cc(F)c(-c4ccc(OCCCN5CCCCC5)nc4)cc3c21 [AZD1390] (first compound max 10 µM, 7x7, partner max 0.3 µM): the Bliss excess in assay [1] was -0.0058; in the assay on IGR-1 (Melanoma), -0.0297; in the assay on NCI-H2369 (Mesothelioma), -0.0442; in [2], 0.0304; in assay [3], -0.0576; in assay [4] it was -0.0223. Further, the Bliss excess in the assay with SK-N-FI (Neuroblastoma) is -0.0208; in the assay on CAL-78 (Chondrosarcoma) it was -0.0665; in [5], 0.0101; in assay [6], -0.0317; in assay [7], -0.0401; in assay [8], -0.0503. Moreover, the Bliss excess in assay [9] is -0.0434; in assay [10] it was -0.023; in assay [11] it was 0.0032; in assay [12], -0.0283; in assay [13], -0.0248; in assay [14] it was -0.0567. Moreover, the Bliss excess in assay [15] is -0.109; in [16], -0.0153.

For the origin of these results see the supplement of paper PMC11061612.
